Test system: Canada Geese
Test: Repellent-adulterated feed plus non-adulterated attractant feed in a recreational area
Assay type: in vivo
Text: Owing to the problems encountered with both wide-scale repellent spraying and the use of repellent-treated feed on its own, a new approach to controlling the goose population at the site of Example 1 was developed. In this new approach, both repellent-adulterated feed in the form of cracked corn treated with methyl anthranilate, and non-adulterated feed (also in the form of cracked corn) was used.
In this approach to controlling the goose population at the site of Example 1, a commercially available animal feeder with a 200 lb. capacity tripod mounted hopper and SOLAR ELITE® dispensing head were obtained from On Time Wildlife Feeders (2488 Hwy 33, Ruston, La. 71270, U.S.A.). The feeder was modified as described in Example 5 to become a repellent station. The repellent reservoir was filled with an 8% solution of methyl anthranilate solution (prepared using fifty-five percent of a commercially available REJEX-IT® solution and forty-five percent water) and the flow rate from the repellent reservoir was adjusted to be approximately 0.0025 liters per second. The hopper of the repellent station was then filled with cracked corn.
In FIG. 1a a portion of the site described in Example 1 is depicted. […]

COC(=O)c1ccccc1N [methyl anthranilate]
acceptance of repellent-adulterated cracked corn by geese (8% methyl anthranilate solution sprayed on cracked corn at the repellent station, approx. 0.0025 liters per second): intolerable | return of geese to the grassy area where they are not desired (repellent station with 8% methyl anthranilate solution plus unadulterated cracked corn on paved area, length of trial (six weeks)): did not return to grassy area 100
